Test results: patent publication US20250263437A1, “POLYPEPTIDE FOR REPAIRING SKIN WOUND OR MUCOSAL INJURY, AND APPLICATION THEREOF” (Sichuan Gooddoctor Panxi Pharmaceutical Co., Ltd., priority 2021, published 2025)
“Also recorded” adds a separate entry of the source. Where no end group is shown, it is not given here.

Key:
[1] = tested on: acute mechanical skin injury in rats; assay: Healing effect on acute mechanical skin injury in rats; assay type: in vivo; details: for promoting wound healing (in words): 40 μg/cm^2; for wound healing rate, 5 days / wound healing rate, 10 days / wound healing rate, 14 days: polypeptide 40 μg/cm^2, Jinyintai 40 IU/cm^2, topical once daily, in % (unit assumed)
Method: SPF grade SD rats, weighing 180-230 g, were raised in respective clean sterilized cages, with water, feed and padding replacement given regularly every day. The feeding temperature was kept at 22° C. and the humidity was 55-65%. They were raised for one week for acclimatization. According to a random grouping method, the animals were divided into a model control group (normal saline), a Jinyintai control group (40 IU/cm^2, Shenzhen Watsin Genetech Ltd.) and a test polypeptide treatment group (40 μg/cm^2), with 6 animals in each group. After the rats were successfully anesthetized by intraperitoneal injection of 3% pentobarbital sodium, the hair within 1 cm around the edge of the wound was cut off, and the wound area was disinfected first with iodophor and then with 75% alcohol locally. A round full-thickness skin wound of 1.5 cm×1.5 cm (i.e., 1.5 cm in diameter) was made near the neck at 4 cm down to the back from the middle of the connecting line of the ears, with the spine as the midline. It went deep into the muscle layer, forming an animal model of acute mechanical injury. After modeling, the rats were raised in individual cages with the wounds exposed. During dressing replacement, the rats were all first debrided with iodophor, and then, the wound was washed with sterile normal saline and wiped dry. Except the model group, the wounds of the rats in the other groups were locally coated with 40 μL of the corresponding drug solution once daily. On days 0, 5, 10 and 14 of administration, the wound images of the rats in each group were taken, and the wound area was calculated by means of an image analysis software (Image J). According to the formula, the wound healing rate was obtained.

[2] = tested on: chronic atrophic gastritis model in mice; assay: Therapeutic effect on chronic atrophic gastritis model in mice (MNNG combined with ranitidine); assay type: in vivo; details: 5 mg/kg daily by gavage, 2 weeks
Method: Method: Chronic atrophic gastritis was induced by MNNG (N-methyl-N-nitro-N-nitrosoguanidine) combined with ranitidine. The mice were free to access to an aqueous solution containing MNNG ([…]), and at the same time, the mice were given ranitidine (8 mg/ml) aqueous solution at a dose of 150 mg/kg by gavage at a fixed time per day for 20 consecutive weeks. After 20 weeks of modeling, on the basis of drinking ordinary distilled water, the mice were given Compound 1 (5 mg/kg) daily by gavage.

HMEC-1 cells = assay: Proliferation of HMEC-1 cells (CCK-8); assay type: cell-based, Human; details: 0.05, 0.2 and 0.8 ug/mL; 48 h; 0% serum
Method: Human microvascular endothelial cells (HMEC-1 cells) were cultured in 10% serum culture medium at 37° C. and 5% CO2, the medium was replaced every 1-2 d, and the cell concentration was controlled to be 4×10^6 cells/mL for passage. Cells were collected, prepared to […] with complete culture medium, inoculated into a 96-well cell culture plate, with 100 μL per well, i.e., 5000 cells/well, and cultured at 37° C. and 5% CO2 until the cells adhered to the wall. The polypeptide compound of the present invention was prepared to test concentrations (0.05 ug/mL, 0.2 ug/mL, and 0.8 ug/mL) with 0% serum culture medium as experimental groups, a positive drug (300 ng/ml) was prepared in the same way and added as a positive control, and an equal amount of 0% serum drug-free culture medium was added to the control group. They were added to 5 duplicate wells, and the resultants were incubated at 37° C. and 5% CO2 for 48 h. Detection of the proliferation of cells using CCK-8: the old culture medium was removed, and a serum-free medium containing 10% CCK-8 was added to each well. After incubation in an incubator for 2 h, the absorbance at 450 nm was measured by a microplate reader.

AAVLDKLE [Compound 68]
promoting wound healing (in words) [1]: trend of promoting wound healing | wound healing rate, 5 days [1]: 29.26 ± 6.46 | wound healing rate, 10 days [1]: 60.97 ± 2.87 | wound healing rate, 14 days [1]: 88.42 ± 4.79

SMQASLEAEAKGKAE [Compound 1]
repair / therapeutic effect on chronic atrophic gastritis [2]: could promote the repair of chronic atrophic gastritis in mice; also recorded: therapeutic effect | height of the mucosa in the gastric antrum ([2]; compared with the model group): substantially recovered to the normal state | number of parietal cells ([2]; compared with the model group): increased significantly | structure of the gastric gland ([2]; compared with the model group): recovered to normal | promoting wound healing (in words) [1]: trend of promoting wound healing | wound healing rate, 5 days [1]: 31.68 ± 3.48 | wound healing rate, 10 days [1]: 63.20 ± 3.87 | wound healing rate, 14 days [1]: 91.43 ± 2.87 | effect on proliferation of HMEC-1 cells (HMEC-1 cells): significant proliferation promoting effects; also recorded: proliferation-promoting effect

VDAAVLEKLE [Compound 67]
promoting wound healing (in words) [1]: trend of promoting wound healing | wound healing rate, 5 days [1]: 30.40 ± 3.35 | wound healing rate, 10 days [1]: 61.42 ± 5.73 | wound healing rate, 14 days [1]: 90.87 ± 3.94
